Results as given in the supplement of paper PMC10307832.

Key:
Assay in all cases: relative viability (nuclei count vs DMSO), 5 days (fraction); higher = more cells survive
[1] = compound: O=S(=O)(c1ccccc1)N(CC(F)(F)F)c1ccc(C(O)(C(F)(F)F)C(F)(F)F)cc1 + C[C@]1(O)C[C@@H](c2nc(-c3ccc4ccc(-c5ccccc5)nc4c3)c3c(N)nccn32)C1 [Linsitinib] (partner 1 µM)
How it was run: (§1)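 Lung cancer cell lines were seeded in 1536-well plates and dosed by pin tool the next day, with either a single drug or a fixed anchor-drug dose combined with five library-drug doses (not always all listed) spaced in √10 steps. Five days later, one step fixed the cells and stained their nuclei (final 0.05% Triton X-100, 1% formaldehyde, 1 ug/ml Hoechst), and nuclei were counted on 4× images. Relative viability is the nuclei count in treated wells divided by the count in vehicle wells, and each value is the median of duplicate plates.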

[2] = compound: O=S(=O)(c1ccccc1)N(CC(F)(F)F)c1ccc(C(O)(C(F)(F)F)C(F)(F)F)cc1 + CCNC(=O)c1noc(-c2cc(C(C)C)c(O)cc2O)c1-c1ccc(CN2CCOCC2)cc1 [Luminespib] (partner 0.01 µM)
How it was run: as §1

RO-3306 + Tozasertib = compound: C1=CC2=C(C=CC(=C2)C=C3C(=O)NC(=NCC4=CC=CS4)S3)N=C1 [RO-3306] + Cc1cc(Nc2cc(N3CCN(C)CC3)nc(Sc3ccc(NC(=O)C4CC4)cc3)n2)n[nH]1 [Tozasertib] (partner 0.1 µM)
How it was run: as §1

[3] = compound: O=S(=O)(c1ccccc1)N(CC(F)(F)F)c1ccc(C(O)(C(F)(F)F)C(F)(F)F)cc1 + O=C(c1cc(Cc2n[nH]c(=O)c3ccccc23)ccc1F)N1CCN(C(=O)C2CC2)CC1 [Olaparib] (partner 8 µM)
How it was run: as §1

[4] = compound: O=S(=O)(c1ccccc1)N(CC(F)(F)F)c1ccc(C(O)(C(F)(F)F)C(F)(F)F)cc1 + Nc1nc2[nH]cc(CCc3ccc(C(=O)N[C@@H](CCC(=O)O)C(=O)O)cc3)c2c(=O)[nH]1 [Pemetrexed] (partner 0.2 µM)
How it was run: as §1

Cell Line NCI-H2009 has a relative viability ([1]; first compound 0.8 µM) of 1.15, a relative viability ([1]; first compound 2.53 µM) of 1.01 and a relative viability ([1]; first compound 8 µM) of 1.03. The relative viability ([2]; first compound 0.8 µM) was 1, the relative viability ([2]; first compound 2.53 µM) was 0.878 and the relative viability ([2]; first compound 8 µM) was 0.787. The relative viability (RO-3306 + Tozasertib; first compound 0.01 µM) was 0.816, the relative viability (RO-3306 + Tozasertib; first compound 0.03162 µM) was 0.707 and the relative viability (RO-3306 + Tozasertib; first compound 0.1 µM) was 0.722. The relative viability (RO-3306 + Tozasertib; first compound 0.3162 µM) was 0.671, the relative viability (RO-3306 + Tozasertib; first compound 1 µM) was 0.707 and the relative viability ([3]; first compound 0.8 µM) was 0.663. It also gave a relative viability ([3]; first compound 2.53 µM) of 0.685, a relative viability ([3]; first compound 8 µM) of 0.648 and a relative viability ([4]; first compound 0.8 µM) of 1.01. For the same cell line, the relative viability ([4]; first compound 2.53 µM) was 0.941 and the relative viability ([4]; first compound 8 µM) was 0.824.
